Data set [1] relates to MCF-7 (human breast adenocarcinoma) cells. Put plainly: MTT cytotoxicity assay, MCF-7. The class given is cell-based. The settings on record: Homo sapiens, MCF7, 10 µM, 48 h exposure, read-out: % Cell Viability at 10 µM MCF-7. As for the experimental part:
(§1) The cytotoxicity activity of all the conjugates (6aa–6df) was evaluated in vitro by MTT assay against two different breast cancer cell lines 4T1 (murine) and MCF-7 (human) and HEK 293 (human) as normal cell line. DTX was used as positive control. Cells were grown in DMEM supplemented with 10% FBS and 1% antibiotic solution and incubated at 5% CO2 and 37 °C for 24 h. The stock solutions of all the conjugates were prepared in DMSO and diluted for further use. Briefly, 5 × 10^3 cells/well were seeded in 96-well cell culture plates and allowed to adhere for 24 h. Cell inhibition (%) was determined after 48 h exposure to the compounds at 1–25 μM concentration. After 48 h, MTT assay was performed and the yellow tetrazolium salt (MTT) was reduced in metabolically active cells to form insoluble purple formazan crystals, which were solubilized by the addition of DMSO. The optical density (OD) was recorded at 560 nm and 630 nm as reference wavelength. Percentage cell inhibition was determined by comparison with untreated cells.

Data set [2] concerns 4T1 (mouse mammary carcinoma) cells. Kind of data set: MTT cytotoxicity assay, 4T1. The class given is cell-based. The settings on record: Mus musculus, 10 µM, 48 h exposure, read-out: % Cell Viability at 10 µM 4T1. Here is the method: as §1
For orientation: Formazan colour is commonly taken as a measure of viable cells.

The nature of data set [3]: MTT cytotoxicity assay, normal cell line HEK 293. The data set is classed as cell-based. The settings on record: human, HEK 293 cells, HEK 293 normal cells, 48 h exposure. Here is the method:
as §1

The subject of another data set is MCF-7 cells. Put plainly: Annexin V/PI apoptosis assay by flow cytometry, MCF-7. The data set is classed as cell-based, human. As to conditions: 6af at 2.61 µM, 6cf at 5.71 µM (respective IC50), 48 h. As for the experimental part:
(§2) The extent of apoptosis induced by compounds 6af and 6cf in MCF-7 and 4T1 cells was quantified by flow cytometry according to the manufacturer’s protocol. Briefly, cells were seeded in a 6-well plate at a cell density of 1 × 10^6 cells/well. After 24 h, the media was discarded and cells were treated with fresh media containing compounds 6af and 6cf at their respective IC50 concentrations for 48 h. After treatment, cells were trypsinized, harvested in PBS and collected by centrifugation for 5 min at 2000 rpm. Cells were then resuspended in 1X binding buffer and stained with FITC-labeled Annexin V Alexa Fluor 488 (5 μL) and propidium iodide (10 μL). Cells were analyzed using flow cytometer (Beckman Coulter), and data were analyzed with CytExpert software.

The subject of a further data set is 4T1 cells. Put plainly: Annexin V/PI apoptosis assay by flow cytometry, 4T1. The class given is cell-based, mouse. As to conditions: 6af at 12.84 µM, 6cf at 8.76 µM (respective IC50), 48 h. As for the experimental part:
as §2
A general note: In flow cytometry, cells or beads pass a laser one at a time.

Data set [4] is described as follows: Pharmacokinetic study in Wistar rats, i.v. bolus. The class given is in vivo. As to conditions: rat plasma, 10 mg/kg i.v. bolus. Here is the method: Wistar rats (male; 8–10 weeks, 200–240 g) were procured from Central Animal Facility, BITS Pilani (Pilani, India). Animal experiment protocol was approved by Institutional Animal Ethics Committee (IAEC/RES/24/03), BITS Pilani, Pilani, and all experiments were conducted as per CPCSEA guidelines. Rats were housed in well-ventilated cages at standard laboratory conditions with regular light/dark cycles for 12 h and fed with standard normal diet ab libitum.
The pharmacokinetic study of 6cf was performed on Wistar rats. 6cf solution (prepared in normal saline with 5% w/v tween 80) was administered intravenously at the dose of 10 mg/kg with maximum dosing volume of 300 µL to each rat without fasting (n = 4). After i.v. dosing, blood samples were collected for each preset time point at 10, 20, 30, 50 min, 1.5, 2, 4, 6, 8, 12 and 24 h. 6cf plasma concentration–time profile was plotted and analyzed by non-compartmental model approach using Phoenix 2.1 WinNonlin (Pharsight Corporation, USA) to determine t1/2, elimination half-life; C0, drug concentration in plasma at t = 0; AUC0-t, area under curve from zero to the last time point; AUC0–∞, area under curve from zero to infinity; and MRT, mean residence time.
A simple liquid–liquid extraction (LLE) method was used for extraction of 6cf from the rat plasma. A 200 µL aliquot of plasma sample containing 6cf was taken in 5 mL glass tube, followed by the addition of 100 µL of internal standard (I.S.) (clobetasol, 2 µg/mL) solution. Samples were vortexed for 1 min, and then 2 mL of ethyl acetate was added as extracting solvent. The samples were vortexed for 5 min and centrifuged at 5000 rpm for 15 min at 4 °C. The organic layer was collected and evaporated to dryness at 40 ± 0.5 °C. The residue was reconstituted with 250 µL of mobile phase and vortexed for 1 min. Finally, 150 µL of sample was injected into HPLC for quantification.
A Thermo Fisher Rapid Separation (RS) UHPLC System (Ultimate 3000) equipped with a pump (LPG-3400SD), Diode Array Detector (DAD) (DAD-3000) and autosampler (ACC-3000T) with 250 µL injection loop was used for purity analysis. The UHPLC system was equilibrated for approximately 40 min before beginning the sample analysis. Column temperature was 35° throughout the analysis. 6cf and I.S. were separated on Intersil® ODS (C18) column (250 × 4.6 mm, 5µm) with a mobile phase consisting of acetonitrile:water (60:40 % v/v) run in isocratic mode at a flow rate of 1 mL/min, detection wavelength 259 nm and injection volume of 150 µL. […] Control of hardware and data handling was performed using Chromeleon software version 7.2 SR4.

For data set [5], the system named is Human prostate cancer cell line (PC-3). Further details: method as in PMID 23884119, PMID 25476168, PMID 30220830, PMID 23584541, PMID 28158265. The settings on record: literature example of Figure 1; cited from earlier work.
Data set [6] relates to leukemia cell line (K562). As to conditions: cited from earlier work.
Data set [7] relates to leukemia cell line (Jurkat). Further details: method as in doi:10.1039/c3nj00513e. As to conditions: cited from earlier work.
Data set [8] has as its system Lymphoblastic leukemia cell line (CCRF-CEM). The arrangement: method as in PMID 23291595. As to conditions: cited from earlier work.

“And” between values parts separate entries of the source, which are not always exact repeats. Equal values may be shown once. Read-outs that look alike come from different tables or passages of the source. Where only a bound is given, the exact number is not on record here.

One may read the viability as a per cent measure of how many cells are alive, often set against a control. Broadly, the MRT is a mean duration of stay, worked out from the concentration-time curve. A word on the melting point: it is the temperature of the solid-liquid transition. What is called IC50 is the midpoint of a concentration-inhibition curve.

On to `C[C@H](CCC(=O)NCc1cn(CC(=O)c2ccc(Br)cc2)nn1)C1CCC2C3C(C[C@H](O)[C@@]21C)[C@@]1(C)CC[C@@H](O)CC1C[C@H]3O` (stereo partly drawn) [6cf, (4R)-N-((1-(2-(4-Bromophenyl)-2-oxoethyl)-1H-1,2,3-triazol-4-yl)methyl)-4-((3R,7R,10S,12S,13R)-3,7,12-trihydroxy-10,13-dimethylhexadecahydro-1H-cyclopenta[a]phenanthren-17-yl)pentanamide], for which the melting point lay within 144 to 145 °C. Also, the viability at 10 µM in data set [1] was 37.5%. In [2], the viability at 10 µM was 49.3%. The compound further showed a viability at 48 h, 10 µM in data set [3] of over 86%. Further, in the data set with MCF-7 cells, the “apoptosis (total) in MCF-7 cells” value stood at 46.09%. The “total apoptosis in 4T1 cells” value in the data set with 4T1 cells turned out to be 19.56%. Besides, in data set [4] (male, Wistar, iv, conversion of 1752.69 ng/mL, read-out: initial concentration converted to molar), the C0 was about 2560 nM. Also, the AUC(0-t) in data set [4] (male, Wistar, iv, mean ± SEM, read-out: Area Under the Curve (0 to 12 h), AUC0–last) came to 2000 ± 87.4 ng·h/mL. In data set [4] (male, Wistar, iv, mean ± SEM, read-out: Area Under the Curve (0 to infinity), AUC0–∞), the AUC(0-inf) was 2690 ± 113 ng·h/mL. In data set [4] (male, Wistar, iv, mean ± SEM, read-out: Elimination Rate Constant, Ke (converted)), the k el was 3.61e-05 s⁻¹. For the same compound, the half-life in data set [4] (male, Wistar, iv, mean ± SEM, read-out: Half-Life, t1/2 (converted)) is 5.63 ± 0.539 h. Moreover, the C0 in data set [4] (male, Wistar, iv, mean ± SEM, read-out: Initial Concentration, C0) was 1750 ± 66.5 ng/mL. Moreover, the MRT in data set [4] (male, Wistar, iv, mean ± SEM, read-out: Mean Residence Time, MRT) stood at 8.47 ± 0.96 h. Besides, in [4] (mean ± SEM), the “Area Under the First Moment Curve (0 to 12 h), AUMC0–last” value came out at 8155.94 ± 311.78 ng·h/mL and the “Area Under the First Moment Curve (0 to infinity), AUMC0–∞” value was found to be 22276.39 ± 2023.334 ng·h/mL.

Take `CC(=O)c1ccc(OCc2cn(CC(=O)C3CCC4C5CC=C6CC(O)CCC6(C)C5CCC34C)nn2)cc1` (centres unmarked) [I]: the IC50 in [5] is 0.03 µM.

Consider `COC(=O)CCC(C)C1CCC2C3C(O)CC4CC(n5cc(CCCC#Cc6nc7c(N)ncnc7n6C6CC(O)C(CO)O6)nn5)CCC4(C)C3CCC12C` (centres unmarked) [VII], for which the IC50 was 8.51 µM and 8.5 µM in data set [6]; 10.5 ± 2.64 µM in data set [7].

With `CC(CCn1cc(CCCCC#Cc2nc3c(N)ncnc3n2C2CC(O)C(CO)O2)nn1)C1CCC2C3C(O)CC4CC(O)CCC4(C)C3CCC12C` (centres unmarked) [VI], the IC50 in [6] is 16.2 ± 2.2 µM.

`CC(CCC(=O)OCc1cn(Cc2cccc(Cn3cc(COC(=O)CCC(C)C4CCC5C6C(O)CC7CC(O)CCC7(C)C6CC(O)C45C)nn3)n2)nn1)C1CCC2C3C(O)CC4CC(O)CCC4(C)C3CC(O)C12C` (centres unmarked) [V]: the IC50 in data set [8] is 3.98 µM.

(Values after PMC8510344, “Bile-Acid-Appended Triazolyl Aryl Ketones: Design, Synthesis, In Vitro Anticancer Activity and Pharmacokinetics in Rats” (Molecules, 2021).)
